Measurements taken from EP4375289A1, “PEPTIDE WITH ANTIMICROBIAL ACTIVITY” (Freie Universität Berlin, priority 2022, dated 2024).
Square brackets hold non-standard residues; d marks the D form. Peptide text beside a SMILES is read from it. 2Abz = Nc1ccccc1C(=O)O; Abu = CC[C@H](N)C(=O)O

Experiments:
[1] = Peptide-induced membrane disrupting activity; format: biochemical; settings: artificial phospholipid membranes at physiological pH
Procedure: Peptide-induced membrane disrupting activity was determined before by calculation of EC50 values and an increase in bioactivity with a growing degree of side chain fluorination was found.

red blood cells = format: cell-based; settings: data not shown
Procedure: Hemolysis assays were performed on red blood cells and cytotoxicity tests with two cell lines (HeLa, A549). No potent hemolytic activity for all peptides up to a concentration of 250 µg/mL, corresponding to concentrations of 140 µM (AbuR14) - 125 µM (TfeGlyR14) was determined (data not shown).

C. albicans = experiment: Minimum inhibitory concentration (MIC) assay, CLSI broth dilution; format: cell-based; settings: C. albicans IMT 9655
P. aeruginosa = experiment: as above; format: cell-based; settings: P. aeruginosa ATCC 27853
Procedure: (§1) Minimum inhibitory concentrations (MIC) assays were performed according to Clinical and Laboratory Standards Institute (CLSI) recommendations in cation-adjusted Mueller-Hinton broth (Mueller-Hinton II) broth in flat-bottomed, 96-well plates (Corning, Wiesbaden, Germany) with an inoculum of 10^5 bacteria/well and incubated at 37°C overnight. The optical density of the cultures was determined at 460 and 600 nm immediately after inoculation and after overnight incubation using a BioTek Synergy HT plate reader. Controls included bacterial strains, medium alone and wells without peptide additions. A serial dilution of each peptide was done before bacteria addition. A serial dilution of media including the respective peptide solvent without peptides supplement (Dimethylsulfoxid; Sigma-Aldrich, Taufkirchen, Germany or 1 x phosphate buffered saline; Biochrom, Berlin, Germany) functions as control to ensure the solvent influence on growth.

S. Typhimurium = experiment: as above; format: cell-based; settings: S. Typhimurium ATCC 14028
Procedure: as §1

K. pneumoniae = experiment: as above; format: cell-based; settings: K. pneumoniae ATCC 700603
Procedure: as §1

E. coli = experiment: as above; format: cell-based; settings: E. coli ATCC 25922
Procedure: as §1

S. aureus = experiment: as above; format: cell-based; settings: S. aureus ATCC 29213
Procedure: as §1

E. faecalis = experiment: as above; format: cell-based; settings: E. faecalis ATCC 29212
Procedure: as §1

CC(C)C[C@@H](NC(=O)[C@H](CCCNC(=N)N)NC(=O)[C@H](Cc1c[nH]c2ccccc12)NC(=O)[C@H](CCCNC(=N)N)NC(=O)[C@@H](NC(=O)[C@@H](N)CCCNC(=N)N)C(C)C)C(=O)N[C@H](Cc1ccccc1)C(=O)Nc1ccccc1C(=O)N[C@H](C)C(=O)N[C@@H](CCCNC(=N)N)C(=O)N[C@@H](Cc1c[nH]c2ccccc12)C(=O)N[C@@H](CCCNC(=N)N)C(=O)N[C@H](C(=O)N[C@@H](CCCNC(=N)N)C(=O)O)C(C)C [SAJO-2, H-R-Val-R-Trp-R-[I-f-[2]Abz-a]-R-Trp-R-Val-R-OH, reference compound] (H-RVRWR[dL][dF][2Abz][dA]RWRVR-OH; N-terminus and C-terminus assumed)
EC50 [1]: 70 µM | peptide-induced hemolysis at minimum concentrations (red blood cells; red blood cells): ≥ 0.5 mg/mL

CC[C@H](NC(=O)[C@H](CCCNC(=N)N)NC(=O)[C@H](CC)NC(=O)[C@H](CCCNC(=N)N)NC(=O)[C@@H](C)NC(=O)c1ccccc1NC(=O)[C@@H](Cc1ccccc1)NC(=O)[C@@H](CC(C)C)NC(=O)[C@H](CCCNC(=N)N)NC(=O)[C@H](CC)NC(=O)[C@H](CCCNC(=N)N)NC(=O)[C@H](CC)NC(=O)[C@H](CCCNC(=N)N)NC(C)=O)C(=O)N[C@@H](CCCNC(=N)N)C(N)=O [AbuR14, Ac-R-Abu-R-Abu-R-[I-f-[2]Abz-a]-R-Abu-R-Abu-R-NH2] (Ac-R[Abu]R[Abu]R[dL][dF][2Abz][dA]R[Abu]R[Abu]R-NH2)
1*MIC (C. albicans): 512 µg/mL | 1*MIC (P. aeruginosa): ≥1024 µg/mL | 1*MIC (S. Typhimurium): 256 µg/mL | 1*MIC (K. pneumoniae): ≥1024 µg/mL | 1*MIC (E. coli): 128 µg/mL | 1*MIC (S. aureus): ≥1024 µg/mL | 1*MIC (E. faecalis): 512 µg/mL | EC50 [1]: 148 µM | No potent hemolytic activity up to a concentration (corresponding concentration) (red blood cells; corresponding to 250 µg/mL): > 140 µM
